Data taken from patent US11339171B2, “MDM2 inhibitors” (Gan & Lee Pharmaceuticals, priority 2017, dated 2022).
“And” between values parts separate entries of the source, which are not always exact repeats. Equal values may be shown once. Read-outs that look alike come from different tables or passages of the source.

How the values were obtained:
[1] = target: T1, MDM2 (Homo sapiens, UniProt Q00987); assay: Inhibition test of MDM2-P53 (GST-MDM2, Biotin-P53, Anti-GST-Tb, SA-XL665); type: binding
T1 construct: made in house
T1 sequence (Q00987 whole entry): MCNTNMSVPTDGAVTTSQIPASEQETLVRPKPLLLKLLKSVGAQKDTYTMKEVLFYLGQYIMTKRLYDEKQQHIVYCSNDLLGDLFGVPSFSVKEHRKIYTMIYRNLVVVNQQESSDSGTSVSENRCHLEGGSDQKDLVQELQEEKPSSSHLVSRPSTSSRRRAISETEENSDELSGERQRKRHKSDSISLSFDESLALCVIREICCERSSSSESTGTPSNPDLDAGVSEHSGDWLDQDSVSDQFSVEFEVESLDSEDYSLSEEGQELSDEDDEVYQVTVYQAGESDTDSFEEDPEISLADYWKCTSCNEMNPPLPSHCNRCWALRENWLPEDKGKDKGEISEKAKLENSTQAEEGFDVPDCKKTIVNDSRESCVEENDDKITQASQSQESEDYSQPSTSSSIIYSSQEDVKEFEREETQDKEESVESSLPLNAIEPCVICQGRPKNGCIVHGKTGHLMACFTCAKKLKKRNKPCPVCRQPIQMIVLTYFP
Outline: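 HTRF-type assay using 4 nM GST-MDM2 (final), Biotin-P53, SA-XL665 and anti-GST-Tb in PBS with 0.1% BSA, 5 mM DTT and 1 mM AEBSF. Compounds in 5-fold serial dilutions over twelve points; incubation 90 min at 25° C with shaking before plate-reader read-out.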

[2] = Pharmacokinetics in ICR mice after intravenous and intragastric administration; type: in vivo; settings: for MRT last: read-out: MRT(0-t); for MRT inf: read-out: MRT(0-∞); for Vd: read-out: Vz
Outline: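 Compounds were dissolved at 0.5 mg/ml in DMSO/PEG400/HP-β-CD saline vehicle and given to overnight-fasted male ICR mice, 2 mg/kg by vein or 5 mg/kg by gavage (n=3 each). Plasma was then protein-precipitated, assayed by LC-MS/MS, and PK parameters including oral bioavailability were derived.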

[3] = system: human osteosarcoma cell line SJSA-1; assay: Inhibition of proliferation of human osteosarcoma cell line SJSA-1 (DAPI staining, In Cell Analyzer); settings: Homo sapiens, SJSA-1, 72 h, read-out: IC50 (nM), inhibitory activity on proliferation of human osteosarcoma cell line SJSA-1, SJSA-1, incubated 72 h
[4] = ICR mice, IV 2 mg/kg, individual animal, 2 mg/kg
[5] = ICR mice, PO 5 mg/kg, individual animal, 5 mg/kg
[6] = male, ICR, mouse, plasma, iv, 2 mg/kg, ICR mice, IV 2 mg/kg, individual animal
[7] = male, ICR, mouse, plasma, iv, 2 mg/kg, ICR mice, IV 2 mg/kg, individual animal, read-out: AUC(0-t)
[8] = male, ICR, mouse, plasma, iv, 2 mg/kg, ICR mice, IV 2 mg/kg, individual animal, read-out: Cmax
[9] = male, ICR, mouse, plasma, iv, 2 mg/kg, ICR mice, IV 2 mg/kg, individual animal, read-out: Tmax
[10] = male, ICR, mouse, plasma, iv, 2 mg/kg, ICR mice, IV 2 mg/kg, individual animal, read-out: t1/2 (converted)
[11] = male, ICR, mouse, plasma, iv, 2 mg/kg, ICR mice, IV 2 mg/kg, mean of 3 animals
[12] = male, ICR, mouse, plasma, iv, 2 mg/kg, ICR mice, IV 2 mg/kg, mean of 3 animals, read-out: AUC(0-t)
[13] = male, ICR, mouse, plasma, iv, 2 mg/kg, ICR mice, IV 2 mg/kg, mean of 3 animals, read-out: Cmax
[14] = male, ICR, mouse, plasma, iv, 2 mg/kg, ICR mice, IV 2 mg/kg, mean of 3 animals, read-out: Tmax
[15] = male, ICR, mouse, plasma, iv, 2 mg/kg, ICR mice, IV 2 mg/kg, mean of 3 animals, read-out: t1/2 (converted)
[16] = male, ICR, mouse, plasma, po, 5 mg/kg, ICR mice, PO 5 mg/kg, individual animal
[17] = male, ICR, mouse, plasma, po, 5 mg/kg, ICR mice, PO 5 mg/kg, individual animal, read-out: AUC(0-t)
[18] = male, ICR, mouse, plasma, po, 5 mg/kg, ICR mice, PO 5 mg/kg, individual animal, read-out: t1/2 (converted)
[19] = male, ICR, mouse, plasma, po, 5 mg/kg, ICR mice, PO 5 mg/kg, mean of 3 animals
[20] = male, ICR, mouse, plasma, po, 5 mg/kg, ICR mice, PO 5 mg/kg, mean of 3 animals, read-out: AUC(0-t)
[21] = male, ICR, mouse, plasma, po, 5 mg/kg, ICR mice, PO 5 mg/kg, mean of 3 animals, read-out: Cmax
[22] = male, ICR, mouse, plasma, po, 5 mg/kg, ICR mice, PO 5 mg/kg, mean of 3 animals, read-out: Tmax
[23] = male, ICR, mouse, plasma, po, 5 mg/kg, ICR mice, PO 5 mg/kg, mean of 3 animals, read-out: t1/2 (converted)
[24] = male, ICR, mouse, plasma, po, 5 mg/kg, oral intragastric administration 5 mg/kg, read-out: AUC0-t
[25] = male, mouse, plasma, ICR mice, PO 5 mg/kg vs IV 2 mg/kg, from mean values, read-out: F* (bioavailability)

SMILES: COc1ncc(-c2nc3c(n2C(C)C)[C@@]2(C(=O)Nc4cc(Cl)ccc42)N(c2cc(Cl)ccc2F)C3=O)c(OC)n1 [Example S-44, (S)-6-chloro-5′-(5-chloro-2-fluorophenyl)-2′-(2,4-dimethoxypyrimidin-5-yl)-3′-isopropyl-3′H-spiro[dihydroindole-3,4′-pyrrolo[3,4-d]imidazole]-2,6′(5′H)-dione]
- IC50 [1]: 1.18 nM
- AUC(0-t) [2, 4]: 2703.63 ng·h/mL and 2987.84 ng·h/mL
- AUC(0-∞) [2, 4]: 3052.47 ng·h/mL and 3364.67 ng·h/mL
- CL [2, 4]: 10.92 mL/min/kg and 9.91 mL/min/kg
- Cmax [2, 4]: 826.58 ng/mL and 951.21 ng/mL
- MRT(0-t) [2, 4]: 1.82 h
- MRT(0-∞) [2, 4]: 2.61 h and 2.56 h
- Vz [2, 4]: 1.82 L/kg and 1.64 L/kg
- t1/2 [2, 4]: 1.92 h and 1.91 h
- AUC(0-t) [2, 5]: 5161.46 ng·h/mL and 6287.89 ng·h/mL
- AUC(0-∞) [2, 5]: 5447.83 ng·h/mL and 6556.64 ng·h/mL
- Cmax [2, 5]: 1097.85 ng/mL and 1204.30 ng/mL
- MRT(0-t) [2, 5]: 2.81 h and 3.08 h
- MRT(0-∞) [2, 5]: 3.22 h and 3.38 h
- Tmax [2, 5]: 2.00 h
- t1/2 [2, 5]: 1.77 h and 1.65 h
- AUC(0-inf) [2, 6]: 2770 ng·h/mL
- clearance [2, 6]: 12.1 mL/min/kg
- AUC(0-t) [2, 7]: 2510 ng·h/mL
- Cmax [2, 8]: 872 ng/mL
- MRT last [2, 6]: 1.71 h
- MRT inf [2, 6]: 2.35 h
- Tmax [2, 9]: 0.08 h
- Vd [2, 6]: 1.86 L/kg
- half-life [2, 10]: 1.79 h
- AUC(0-inf) [2, 11]: 3060 ng·h/mL
- clearance [2, 11]: 11 mL/min/kg
- AUC(0-t) [2, 12]: 2730 ng·h/mL
- Cmax [2, 13]: 883 ng/mL
- MRT last [2, 11]: 1.77 h
- MRT inf [2, 11]: 2.51 h
- Tmax [2, 14]: 0.083 h
- Vd [2, 11]: 1.77 L/kg
- half-life [2, 15]: 1.87 h
- AUC(0-inf) [2, 16]: 8960 ng·h/mL
- AUC(0-t) [2, 17]: 7900 ng·h/mL
- Cmax ([2]; male, ICR, mouse, plasma, po, 5 mg/kg, ICR mice, PO 5 mg/kg, individual animal, read-out: Cmax): 1360 ng/mL
- MRT last [2, 16]: 3.17 h
- MRT inf [2, 16]: 4.17 h
- Tmax ([2]; male, ICR, mouse, plasma, po, 5 mg/kg, ICR mice, PO 5 mg/kg, individual animal, read-out: Tmax): 1 h
- half-life [2, 18]: 2.56 h
- AUC(0-inf) [2, 19]: 6990 ng·h/mL
- AUC(0-t) [2, 20]: 6450 ng·h/mL
- Cmax [2, 21]: 1220 ng/mL
- MRT last [2, 19]: 3.02 h
- MRT inf [2, 19]: 3.59 h
- Tmax [2, 22]: 1.33 h
- half-life [2, 23]: 2 h
- AUC(0-t) [2, 24]: 6450 ng·h/mL
- half-life ([2]; male, ICR, mouse, plasma, po, 5 mg/kg, oral intragastric administration 5 mg/kg, read-out: half-life (converted)): 2 h
- bioavailability ([2]; male, ICR, mouse, plasma, oral intragastric administration 5 mg/kg, read-out: bioavailability): 94.4%
- bioavailability [2, 25]: 94.4%
- IC50 [3]: 11.9 nM

SMILES: COc1cc(OC)c(-c2nc3c(n2C(C)C)[C@@]2(C(=O)Nc4cc(Cl)ccc42)N(c2cccc(Cl)c2)C3=O)cn1 [Example S-115, (S)-6-chloro-5′-(3-chlorophenyl)-2′-(4,6-dimethoxypyridin-3-yl)-3′-isopropyl-3′H-spiro[dihydroindole-3,4′-pyrrolo[3,4-d]imidazole]-2,6′(5′H)-dione]
- IC50 [1]: 1.3 nM
- AUC(0-t) [2, 4]: 2278.66 ng·h/mL and 2987.42 ng·h/mL
- AUC(0-∞) [2, 4]: 2289.66 ng·h/mL and 3011.30 ng·h/mL
- CL [2, 4]: 14.56 mL/min/kg and 11.07 mL/min/kg
- Cmax [2, 4]: 2549.96 ng/mL and 4136.98 ng/mL
- MRT(0-t) [2, 4]: 0.79 h and 0.82 h
- MRT(0-∞) [2, 4]: 0.82 h and 0.87 h
- Vz [2, 4]: 1.01 L/kg and 0.87 L/kg
- t1/2 [2, 4]: 0.80 h
- AUC(0-t) [2, 5]: 2355.30 ng·h/mL and 2985.59 ng·h/mL
- AUC(0-∞) [2, 5]: 2377.88 ng·h/mL and 3066.25 ng·h/mL
- Cmax [2, 5]: 2135.46 ng/mL and 834.66 ng/mL and 601.29 ng/mL
- MRT(0-t) [2, 5]: 1.37 h and 2.13 h and 3.22 h
- MRT(0-∞) [2, 5]: 1.41 h and 2.20 h and 3.39 h
- Tmax [2, 5]: 0.50 h and 1.00 h and 4.00 h
- t1/2 [2, 5]: 1.19 h and 1.12 h
- AUC(0-inf) [2, 6]: 2590 ng·h/mL
- clearance [2, 6]: 12.9 mL/min/kg
- AUC(0-t) [2, 7]: 2580 ng·h/mL
- Cmax [2, 8]: 3000 ng/mL
- MRT last [2, 6]: 0.9 h
- MRT inf [2, 6]: 0.94 h
- Tmax [2, 9]: 0.08 h
- Vd [2, 6]: 1 L/kg
- half-life [2, 10]: 0.9 h
- AUC(0-inf) [2, 11]: 2630 ng·h/mL
- clearance [2, 11]: 12.8 mL/min/kg
- AUC(0-t) [2, 12]: 2610 ng·h/mL
- Cmax [2, 13]: 3230 ng/mL
- MRT last [2, 11]: 0.84 h
- MRT inf [2, 11]: 0.88 h
- Tmax [2, 14]: 0.083 h
- Vd [2, 11]: 0.96 L/kg
- half-life [2, 15]: 0.87 h
- AUC(0-inf) [2, 16]: 3670 ng·h/mL
- AUC(0-t) [2, 17]: 3660 ng·h/mL
- half-life [2, 18]: 1.07 h
- AUC(0-inf) [2, 19]: 3040 ng·h/mL
- AUC(0-t) [2, 20]: 3000 ng·h/mL
- Cmax [2, 21]: 1190 ng/mL
- MRT last [2, 19]: 2.24 h
- MRT inf [2, 19]: 2.33 h
- Tmax [2, 22]: 1.83 h
- half-life [2, 23]: 1.12 h
- AUC(0-t) [2, 24]: 3000 ng·h/mL
- bioavailability [2, 25]: 45.9%
- IC50 [3]: 3360 nM
